In patent US5476841A, “Inhibitors of herpes viral ribonucleotide reductase” (Bio-Mega/Boehringer Ingelheim Research Inc., priority 1994, dated 1995):
Where a SMILES comes first, the peptide text is derived from it. [ ]: non-standard residue; d: D form. The star is where a group is joined. Asp(3,3-(CH2)4) = N[C@H](C(=O)O)C1(C(=O)O)CCCC1; Dibenzylacetyl = O=C(C(Cc1ccccc1)Cc1ccccc1)*; Leu(γ-Me)ol = CC(C)(C)C[C@@H](CO)N*; tBuAla = CC(C)(C)C[C@H](N)C(=O)O; Tle = CC(C)(C)[C@H](N)C(=O)O; NMeV = CN[C@H](C(=O)O)C(C)C; X1 = CC[C@@H](N*)C(C)(C)C; Pyrrolidide = C1CCN(*)C1; NHCH2tBu = CC(C)(C)CN*

Assays:
HSV-2 = test: Inhibition of Herpes Simplex virus (HSV-2) replication in cell culture; type: cell-based; details: BHK-21/C13 cells, serum starved, HSV-2 strain HG-52, 0.02 PFU/cell, 29 h incubation; read-out: EC50, concentration effecting a 50% inhibition of HSV-2 virus replication
Description: Inhibition of Herpes Simplex virus (HSV-2) Replication in Cell Culture
BHK-21/C13 cells (ATCC CCL 10) are incubated for two days in 150 cm^2 T-flasks (1.5×10^6 cells/flask) with alpha-MEM medium (Gibco Canada Inc., Burlington, Ontario, Canada) supplemented with 8% (v/v) fetal bovine serum (FBS, Gibco Canada Inc.). The cells are trypsinized and then transferred to fresh media in a 24 well plate to give 2.5×10^5 cells in 750 μL of media per well. The cells are incubated at 37° for a period of 6 h to allow them to adhere to the plate. Thereafter, the cells are washed once with 500 μL of alpha-MEM supplemented with 0.5% (v/v) FBS and then incubated with 750 μL of the same media (low serum) for 3 days. After this period of serum starvation, the low serum medium is removed and the cells are incubated in 500 μL of BBMT for 2 to 3 hours. {BBMT medium is described by P. Brazeau et al., Proc. Natl. Acad. Sci. USA, 79, 7909 (1982).} Thereafter, the cells are infected with HSV-2 (multiplicity of infection=0.02 PFU/cell) in 100 μL of BBMT medium. (Note: The HSV-2 used was strain HG-52, see Y. Langelier and G. Buttin, J. Gen. Virol., 57, 21 (1981); the virus was stored at -80°.) Following 1 h of virus adsorption at 37°, the media is removed and the cells are washed with BBMT (3×250 μL). The cells in each well are incubated with or without (control) appropriate concentrations of the test agent dissolved in 200 μL of BBMT medium. After 29 h of incubation at 37°, the infected cells are harvested by first freezing the plate at -80°, followed by thawing. The cells in each well are scraped off the surface of the well with the help of the melting ice fragments. After complete thawing, the cell suspensions are collected and each well is rinsed with 150 μL of BBMT medium. The viral sample (suspension plus washing) is sonicated gently for 4 min at 4°. Cell debris are removed by centrifugation (1000 times gravity for 10 minutes at 4°). The supernatant is collected and stored at -80° until determination of viral titer.
Viral titration was performed by a modification of the colorimetric assay method of M. Langlois et al., Journal of Biological Standardization, 14, 201 (1986), and which is described in detail by R. Deziel and Y. Guindon, supra.
Accordingly, the percentage of virus growth inhibition can be determined for the various concentrations of the test agent, and the concentration of the test agent (i.e. the peptide of formula 1) effecting a 50% inhibition of virus replication, i.e. the EC50, can be calculated.

[1] = target: T1, HSV-1 ribonucleotide reductase (Human herpesvirus 1, UniProt P08543); test: Inhibition of Herpes Simplex virus (HSV-1) ribonucleotide reductase; type: biochemical; details: partially purified enzyme from HSV-1 strain F infected BHK-21/C13 cells; mean of four assays; read-out: IC50, concentration causing a 50% reduction of the HSV-1 ribonucleotide reductase activity
T1 construct: obtained from quiescent BHK-21/C13 cells infected with strain F HSV-1 virus; made in house; host or cells: quiescent BHK-21/C13 cells infected with HSV-1 strain F (virus-encoded enzyme, partially purified)
T1 sequence (P08543 whole entry): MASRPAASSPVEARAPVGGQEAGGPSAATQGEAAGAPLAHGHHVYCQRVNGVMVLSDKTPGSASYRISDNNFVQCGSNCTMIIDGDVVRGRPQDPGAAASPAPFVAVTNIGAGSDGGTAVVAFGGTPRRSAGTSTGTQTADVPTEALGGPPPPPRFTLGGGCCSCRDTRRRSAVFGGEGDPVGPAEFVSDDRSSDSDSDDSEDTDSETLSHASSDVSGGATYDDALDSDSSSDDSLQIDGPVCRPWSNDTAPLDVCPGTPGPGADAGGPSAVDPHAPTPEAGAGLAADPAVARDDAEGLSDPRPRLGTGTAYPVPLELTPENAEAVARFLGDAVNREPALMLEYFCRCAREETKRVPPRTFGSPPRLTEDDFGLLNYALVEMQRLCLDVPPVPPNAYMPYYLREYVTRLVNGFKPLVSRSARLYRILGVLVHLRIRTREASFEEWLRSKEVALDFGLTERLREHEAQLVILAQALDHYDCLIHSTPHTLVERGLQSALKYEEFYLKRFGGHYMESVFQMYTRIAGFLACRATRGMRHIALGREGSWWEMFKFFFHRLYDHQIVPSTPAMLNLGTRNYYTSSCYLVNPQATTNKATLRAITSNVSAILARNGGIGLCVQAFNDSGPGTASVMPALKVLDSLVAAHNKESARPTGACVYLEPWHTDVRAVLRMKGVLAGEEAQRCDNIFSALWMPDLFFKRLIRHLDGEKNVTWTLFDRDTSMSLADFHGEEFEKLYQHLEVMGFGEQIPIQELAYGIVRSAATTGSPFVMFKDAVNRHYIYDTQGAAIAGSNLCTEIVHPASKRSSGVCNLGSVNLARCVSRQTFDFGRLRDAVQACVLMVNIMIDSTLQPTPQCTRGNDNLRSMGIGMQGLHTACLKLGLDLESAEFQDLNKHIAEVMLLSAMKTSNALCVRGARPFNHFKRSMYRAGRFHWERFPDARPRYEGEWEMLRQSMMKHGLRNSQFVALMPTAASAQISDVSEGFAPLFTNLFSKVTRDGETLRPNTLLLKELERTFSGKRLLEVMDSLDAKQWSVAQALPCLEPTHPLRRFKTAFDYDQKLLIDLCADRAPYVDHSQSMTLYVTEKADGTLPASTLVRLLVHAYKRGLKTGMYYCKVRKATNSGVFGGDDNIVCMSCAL
Source text: Inhibition of Herpes Simplex virus (HSV-1) Ribonucleotide Reductase
HSV-1 ribonucleotide reductase (partially purified) was obtained from quiescent BHK-21/C13 cells infected with strain F HSV-1 virus at 10 plaque forming units/cell as described by E. A. Cohen et al., J. Gen. Virol., 66, 733 (1985).
The assay described by P. Gaudreau et al., J. Biol. Chem., 262, 12413 (1987), is used to evaluate the capability of the compounds of this invention to inhibit HSV-1 ribonucleotide reductase activity. Results are expresed as the concentration of the compound producing 50% of the maximal inhibition (IC50) of enzyme activity. The number of units of the enzyme preparation used in each assay was constant, based on the specific activity of the enzyme preparation. The results are relative to the activity obtained in control experiments without the test compound and represent the mean of four assays that varied less than 10% with each other.

Structure (SMILES) | EC50 (HSV-2) [µM] | IC50 [1] [µM]
CC[C@@H](NC(=O)[C@@H](NC(=O)[C@H](CC(=O)N1CCCC1)NC(=O)[C@@H](NC(=O)[C@H](C(C)C)N(C)C(=O)C(Cc1ccccc1)Cc1ccccc1)C(C)(C)C)C1(C(=O)O)CCCC1)C(C)(C)C [(PhCH2)2 CHC (O)--(N-Me)-Val-Tbg-Asp(pyrrolidino)-Asp(cyPn)-NH--(R)--CH(C2 H5)C(CH3)3] (Dibenzylacetyl-[NMeV][Tle]D(Pyrrolidide)[Asp(3,3-(CH2)4)]-X1) | < 2 | –
CC(C)[C@@H](C(=O)N[C@H](C(=O)N[C@@H](CC(=O)N1CCCC1)C(=O)N[C@H](C(=O)N[C@H](CO)CC(C)(C)C)C1(C(=O)O)CCCC1)C(C)(C)C)N(C)C(=O)C(Cc1ccccc1)Cc1ccccc1 [Example 3, (PhCH2)2 CHC(O)--(N-Me)-Val-Tbg-Asp(pyrrolidino)-Asp(cyPn)-γMeLeucinol] (Dibenzylacetyl-[NMeV][Tle]D(Pyrrolidide)[Asp(3,3-(CH2)4)]-{Leu(γ-Me)ol}) | 3 | 0.17
CC(C)[C@@H](C(=O)N[C@H](C(=O)N[C@@H](CC(=O)N1CCCC1)C(=O)N[C@H](C(=O)NCC(C)(C)C)C1(C(=O)O)CCCC1)C(C)(C)C)N(C)C(=O)C(Cc1ccccc1)Cc1ccccc1 [(PhCH2)2 CHC(O)--(N-Me)-Val-Tbg-Asp(pyrrolidino)-Asp(cyPn)-NHCH2 C(CH3)3] (Dibenzylacetyl-[NMeV][Tle]D(Pyrrolidide)[Asp(3,3-(CH2)4)]-NHCH2tBu) | 1.6 | –
CC(C)[C@@H](C(=O)N[C@H](C(=O)N[C@@H](CC(=O)N1CCCC1)C(=O)N[C@H](C(=O)N[C@@H](CC(C)(C)C)C(=O)O)C1(C(=O)O)CCCC1)C(C)(C)C)N(C)C(=O)C(Cc1ccccc1)Cc1ccccc1 [(PhCH2)2 CHC(O)--(N-Me)-Val-Tbg-Asp (pyrrolidino)-Asp(cyPn)-γMeLeu-OH] (Dibenzylacetyl-[NMeV][Tle]D(Pyrrolidide)[Asp(3,3-(CH2)4)][tBuAla]-OH) | 6 | –
